Measured values: patent US5093127A, “Preparation of FR115224 substrate for parenteral administration” (Fujisawa Pharmaceutical Co., Ltd., priority 1989, dated 1992)
Numbered stars: 1 amine (or outer) side, 2 acyl side, 3 side chain; on linkers, the order of the positions; unused ones are H or OH. Bridge positions count the residues as written; N and C are the ends. Square brackets hold non-standard residues; d marks the D form. Peptide text beside a SMILES is read from it. * marks the point of attachment. X2 = CN(/C(=C/c1ccc(O)cc1)C(=O)[*:2])[*:1]; aThr = C[C@H](O)[C@H](N)C(=O)O; X1 = CCCCCc1ccccc1CCC(=O)*

Legend:
[1] = 20° C.; cited from earlier work
[2] = Solubility test of FR115224 substance in water with cyclodextrins; format: physicochemical; conditions: for Solubility of FR115224 substance: distilled water, room temperature
Method: FR115224 substance (125 mg) was charged in 13 sample bottles, respectively and distilled water (2.5 ml) was added thereto.
Then, α-cyclodextrin, β-cyclodextrin, hydroxypropyl β-cyclodextrin or γ-cyclodextrin was charged to each of the sample bottles in amounts of […] (cyclodextrin content: 0.16% w/v), 2.5 mg (cyclodextrin content: 1% w/v) or 12.5 mg (cyclodextrin content: 5% w/v), respectively. No cyclodextrin was charged in one sample bottle, which was made control. After stirring at room temperature for 12 hours, the concentration of FR115224 substance in each aqueous phase was measured to determine the solubility of FR115224 substance.

SMILES | Increase of water solubility by inclusion compound with β-cyclodextrin [1] | Effect of cyclodextrin on the solubility of FR115224 substance in water ([2]; conclusion from Table 1) | Solubility of FR115224 substance ([2]; no cyclodextrin (0 % w/v, control), stirred 12 hours) | Solubility of FR115224 substance ([2]; hydroxypropyl β-cyclodextrin 0.16 % w/v, 12 hours) | Solubility of FR115224 substance ([2]; hydroxypropyl β-cyclodextrin 1 % w/v, 12 hours) | Solubility of FR115224 substance ([2]; hydroxypropyl β-cyclodextrin 5 % w/v, 12 hours) | Solubility of FR115224 substance ([2]; α-cyclodextrin 0.16 % w/v, 12 hours) | Solubility of FR115224 substance ([2]; α-cyclodextrin 1 % w/v, 12 hours) | Solubility of FR115224 substance ([2]; α-cyclodextrin 5 % w/v, 12 hours) | Solubility of FR115224 substance ([2]; β-cyclodextrin 0.16 % w/v, 12 hours) | Solubility of FR115224 substance ([2]; β-cyclodextrin 1 % w/v, 12 hours) | Solubility of FR115224 substance ([2]; β-cyclodextrin 5 % w/v, 12 hours) | Solubility of FR115224 substance ([2]; γ-cyclodextrin 0.16 % w/v, 12 hours) | Solubility of FR115224 substance ([2]; γ-cyclodextrin 1 % w/v, 12 hours) | Solubility of FR115224 substance ([2]; γ-cyclodextrin 5 % w/v, 12 hours)
C(=C\c1ccccc1)/CN1CCN(C(c2ccccc2)c2ccccc2)CC1 [Cinnarizine] | about 5 times |  |  |  |  |  |  |  |  |  |  |  |  |  | 
CCCCCc1ccccc1CCC(=O)N[C@@H]1C(=O)N(C)/C(=C/c2ccc(O)cc2)C(=O)N[C@@H](CC(C)C)C(=O)N[C@H](Cc2ccccc2)C(=O)N[C@@H]([C@H](C)O)C(=O)N[C@@H](CC(N)=O)C(=O)N[C@@H](CO)C(=O)O[C@@H]1C [FR115224 substance] (X1-T[X2]L[dF][aThr]NS; ester 1-C) |  | markedly increase | 0.003 % w/v | 0.009 % w/v | 0.06 % w/v | 0.49 % w/v | 0.008 % w/v | 0.03 % w/v | 0.14 % w/v | 0.013 % w/v | 0.11 % w/v | 0.34 % w/v | 0.006 % w/v | 0.03 % w/v | 0.16 % w/v
